Assay results: patent publication US20070099881A1, “Method of treating wounds by enhancing expression of procollagen” (priority 2001, published 2007)
“Also recorded” adds a separate entry of the source.

Legend:
HF 250 cells = experiment: Cell number and morphology of fibroblasts grown on collagen or plastic; assay type: cell-based, human; settings: 3 μg/ml, 24 hours
Procedure: (§1) Equal numbers of fibroblasts were plated onto tissue culture plastic dishes or collagen-coated Petri dishes. Four confluent 10 cm dishes of HF 250 cells were split in half and the cells replated in four 10 cm collagen-coated and four uncoated dishes. Two collagen-coated dishes and two uncoated dishes received 3 μg/ml of oxandrolone. The two remaining collagen-coated and uncoated dishes received an equal volume of 10% dimethyl-sulfoxide alone. After 24 hours of incubation, the medium was removed and the dishes rinsed with phosphate buffered saline. Northern blot analysis was used to determine the levels of both type I and type III procollagen mRNA expression. Total RNA was extracted from culture cells, using the Total RNA Isolation kit (Ambion, Inc; Austin, Tex.) following the supplier's instructions. Type I and type III procollagen cDNAs were purchased from American Type Culture Collection (Manassas, Va.). The human α1 (I) (HF677) and α1 (III) (HF934) procollagen cDNAs were enzymatically cleaved, purified, and subsequently end-labeled with ^32P dCTP (New England Nuclear, Boston, Mass.) to generate specific cDNA probes.
By 24 hours, the density of cells on the plastic surface appeared greater than the density of cells grown on collagen. […] See, e.g., Greco and Ehrlich (1992).

[1] = tested on: type III procollagen mRNA; experiment: Northern blot of type III procollagen mRNA in HF 250 fibroblasts grown on collagen or plastic; assay type: cell-based, human; settings: 3 μg/ml, 24 hours, vs 10% dimethyl sulfoxide alone; for increase of type III procollagen mRNA expression (ratio to GAPDH mRNA density) relative to control: fibroblasts grown on collagen; for expression of type III procollagen mRNA relative to control: fibroblasts grown on plastic
Procedure: (§2) A primary cell line of normal human dermal fibroblasts (HF 250) was derived from the outgrowth of cells from explants of discarded foreskin. Fibroblasts were maintained in Dulbecco's modification of Eagles medium (DMEM) supplemented with 10% fetal bovine serum (FBS). Cells were grown to confluence and passed 1:1 by trypsinization. HF 250 cells were used between their 5th and 7th passages.
(§3) Acid-soluble collagen was isolated from rat tail tendons by acetic acid extraction. Briefly, rat tail tendons were teased from adult rat tails and stirred in ice cold 0.5 M acetic acid for 2 days. The solubilized collagen was cleared by centrifugation and the supernatant made 10% in respect to NaCl w/v. The precipitated collagen was collected by centrifugation, resuspended in 1 mM HCl, dialyzed exhaustively against 1 mM HCl, frozen, lyophilized, weighed, resuspended in sterile ice cold 1 mM HCl at 5 mg/ml and stored at 4° C. until needed. The bottoms of 10 cm Petri dishes were covered with cold, sterile collagen solution. Any free collagen solution was removed with a Pasteur pipette and the coated dishes placed in a 37° C. incubator, where they were incubated overnight to allow complete polymerization of the collagen-coated surface.
(§4) To optimize collagen synthesis and processing by cultured fibroblasts, the culture medium was supplemented with 50 μg/ml of vitamin C as L-ascorbic acid 2-phosphate sesquimagnesium salt (Sigma Chemical Co., St. Louis, Mo.). Oxandrolone was the anabolic steroid tested, and it was supplied by Bio-Technology General Corp., Iselin, N.J. A stock solution of oxandrolone was made in a 10% dimethyl-sulfoxide solution.
as §1, with “Type I and type III procollagen cDNAs were purchased from American Type Culture Collection (Manassas, Va.). The human α1 (I) (HF677) and α1 (III) (HF934) procollagen cDNAs were enzymatically cleaved, purified, and subsequently end-labeled with ^32P dCTP (New England Nuclear, Boston, Mass.) to generate specific cDNA probes.” left out
(§5) Total extracted RNA was subjected to agarose gel electrophoresis and blotted on a nylon membrane. […] The x-ray film was developed and quantitative analysis done by densitometry. […] The quantities of type I and type III procollagen α1 mRNAs and GAPDH mRNA were determined by densitometry. […]

type I procollagen mRNA = experiment: Northern blot of type I procollagen mRNA in HF 250 fibroblasts grown on collagen or plastic; assay type: cell-based, human; settings: 3 μg/ml, 24 hours, vs 10% dimethyl sulfoxide alone; for expression of type I procollagen mRNA (ratio to GAPDH mRNA density) relative to control: fibroblasts grown on collagen; for expression of type I procollagen mRNA relative to control: fibroblasts grown on plastic
Procedure: as §2, §3, §4
as §1, with “Type I and type III procollagen cDNAs were purchased from American Type Culture Collection (Manassas, Va.). The human α1 (I) (HF677) and α1 (III) (HF934) procollagen cDNAs were enzymatically cleaved, purified, and subsequently end-labeled with ^32P dCTP (New England Nuclear, Boston, Mass.) to generate specific cDNA probes.” left out
as §5

[2] = tested on: normal human dermal fibroblasts (HF 250); experiment: Pilot study: collagen produced by fibroblast cultures, pepsin extraction and SDS-PAGE of collagen α chains; assay type: cell-based; settings: 0, 1, 3, 10 or 30 μg/ml tested, 24 hours, ascorbate 50 μg/ml, Coomassie-stained SDS-PAGE; data not shown
Procedure: as §2, §4
An initial pilot study was conducted to determine the concentration of anabolic steroid that would maximize collagen synthesis, as follows. After fibroblast cultures became confluent in 2 days, the culture medium was replaced with a medium supplemented with ascorbate at 50 μg/ml. To each dish, a different concentration of oxandrolone was added (0, 1, 3, 10 or 30 μg/ml). Dishes were incubated for 24 hours in a water saturated atmosphere at 37° in 95% air, 5% CO2. […]

Q: Which results are given for `C[C@]12COC(=O)C[C@@H]1CC[C@@H]1[C@@H]2CC[C@@]2(C)[C@H]1CC[C@]2(C)O` [Oxandrolone, 17-methyl-17-hydroxy-2-oxa-5-androstan-3-one]?
A: cell morphology (HF 250 cells): no obvious difference; number of fibroblasts (HF 250 cells): did not affect; increase of type III procollagen mRNA expression (ratio to GAPDH mRNA density) relative to control [1]: enhanced; increase of type III procollagen mRNA expression (ratio to GAPDH mRNA density) relative to control ([1]; listed as oxandrolone): 11 fold; expression of type III procollagen mRNA relative to control [1]: enhanced; expression of type III procollagen mRNA relative to control ([1]; listed as oxandrolone): minimal change; also recorded: minimal effect; expression of type I procollagen mRNA (ratio to GAPDH mRNA density) relative to control (type I procollagen mRNA): doubled; also recorded: increased; expression of type I procollagen mRNA (ratio to GAPDH mRNA density) relative to control (type I procollagen mRNA; listed as oxandrolone): doubles; expression of type I procollagen mRNA relative to control (type I procollagen mRNA): did not noticeably change; also recorded: minimal effect; expression of type I procollagen mRNA relative to control (type I procollagen mRNA; listed as oxandrolone): minimal change; concentration giving the maximal intensity of collagen α chain staining [2]: 3 µg/mL
